Data published in patent US20100113494A1, “13,13a-Dihydroberberine Derivatives For Use In Pharmaceutical Compositions” (SHANGHAI INSTITUTE OF MATERIA MEDICA, CHINESE ACADEMY OF …, priority 2006, published 2010).
Counter-ions that a name gives are not always drawn. Like-named read-outs stand apart in the source and are kept apart here.

Assays:
[1] = system: C57BL/6J mice fed by high-fat diet; experiment: intraperitoneal glucose tolerance test (ipGTT) in high-fat diet obese mice; format: in vivo; conditions: 100 mg/kg/day in high-fat diet for 2 weeks, glucose 2 g/kg intraperitoneally
Procedure: (§1) Ten mice per group were used to perform the efficacy study of the compounds. Dihydroberberine derivative 19 or its sulfate salt was mixed into the high-fat diet, and administered at a dose of 100 mg/kg/day for 2 weeks. After the mice were starved overnight, basal blood sugar value (0 min) was measured by taking blood from tail vein. Then the mice were injected glucose intraperitoneally at a dose of 2 g/kg according to the body weight of the mice in control group which were fed by normal diet followed by measuring blood sugar value at 15, 30, 45, 60, 90 and 120 min respectively and calculating the area under curve (AUC). The body weight and visceral fat of the mice were weighted, and the contents of fatty acid and triglyceride in the blood plasma of the mice were determined.
(§2) In FIGS. 2-4, CH-con means the normal mouse, HF-con refers to the obese mouse, HF-BBR19 is the obese mouse treated with dihydroberberine derivative 19 for 2 weeks, and HF-BBR19Y is the obese mouse treated with the sulfate salt of dihydroberberine derivative 19 for 2 weeks.
The mice which had been treated with dihydroberberine derivative 19 or its sulfate salt for 2 weeks and the mice in control group were intraperitoneally injected glucose at 2 g/kg after being starved overnight. […]

[2] = system: C57BL/6J mice fed by high-fat diet; experiment: body weight and visceral fat of high-fat diet obese mice; format: in vivo; conditions: 100 mg/kg/day for 2 weeks
Procedure: as §1, §2
Thus they may have a potential effect on treating obesity.

[3] = system: C57BL/6J mice fed by high-fat diet; experiment: free fatty acid and triglyceride in blood plasma of high-fat diet obese mice; format: in vivo; conditions: 100 mg/kg/day for 2 weeks
Procedure: as §1, §2

[4] = system: C57BL/6J mice fed by high-fat diet; experiment: mouse models with insulin resistance and obesity induced by a high-fat diet (experimental conclusion); format: in vivo; conditions: high-fat diet mouse model
Procedure: as §1

L6 muscle cells [5] = experiment: model test on the glucose transport in L6 muscle cells; format: cell-based; conditions: 10 μM
Procedure: So, berberine belongs to non-insulin dependent glucose absorption enhancer in the peripheral tissues of the human body. […] In a model test on the glucose transport in L6 muscle cells, the transport rate of 3-methyl glucose in L6 muscle cells increased by about 0.5 times with 400 μM metformin hydrochloride. Berberine hydrochloride could achieve the same effect with less dosage than metformin in a model test on the glucose transport in L6 muscle cells in vitro.
(§3) In our study, the glucose transport rate in L6 muscle cells increased by about 3 times with 10 μM berberine hydrochloride. In a further glucose absorption model test in L6 muscle cells, the glucose absorption in L6 muscle cells increased by more than 2 times with […] berberine hydrochloride in 20 mM glucose medium. […] The improvement in glucose absorption induced by insulin was inhibited obviously, while that induced by berberine was not affected after the treatment with wortmannin, a specific inhibitor of insulin signaling pathway.

L6 muscle cells [6] = experiment: glucose absorption model test in L6 muscle cells; format: cell-based
Procedure: as §3

[7] = system: insulin signaling pathway; experiment: immunoblotting assay of L6 muscle cells, insulin signaling pathway; format: cell-based
AMPK = experiment: immunoblotting assay of L6 muscle cells, AMPK; format: cell-based
p38 MAPK kinase = experiment: immunoblotting assay of L6 muscle cells, p38 MAPK; format: cell-based
AMP:ATP ratio in cells = AMP:ATP ratio in cells by high performance liquid chromatography; format: cell-based; conditions: HPLC
HepG2 cells = conditions: 5-100 μmol of berberine; cited from earlier work
βTC3 cells = conditions: cited from earlier work
type 2 diabetic patients = conditions: cited from earlier work
[8] = system: normal mice and alloxan-induced diabetic mice; conditions: Chen, Xie 1986, cited from earlier work
diabetic mice = conditions: Liu 1996; cited from earlier work
[9] = system: insulin receptor genes and peroxisome proliferator activated receptor genes; conditions: Jiang, CN01121906.8; cited from earlier work
L6 muscle cells [10] = conditions: 400 μM; cited from earlier work

For `COc1ccc2c(c1OC)CN1CCc3cc4c(cc3C1=C2)OCO4` [Compound 19], the “glucose tolerance (ipGTT, area under curve)” value [1] was “significantly improved”, the “increase in body weight versus control group” value [2] was “significantly less” and the “ratio of intra-abdominal (visceral) fat to body weight versus control group” value [2] was “lowered significantly”. For the same molecule, the “content of free fatty acid (NEFA) in blood plasma” value ([3]; HF-Con 0.76±0.03) was 0.6 ± 0.05 mmol/L, the “content of triglyceride TG in blood plasma” value ([3]; HF-Con 1.20±0.05) was 0.86 ± 0.08 mmol/L and the improving insulin resistance [4] was “significant effects”. The relieving fatty liver [4] was “significant effects”.
For `COc1ccc2cc3[n+](cc2c1OC)CCc1cc2c(cc1-3)OCO2` [berberine hydrochloride], the “increase of glucose transport rate in L6 muscle cells” value (L6 muscle cells [5]) was “about 3 times” and the “increase of glucose absorption in L6 muscle cells” value (L6 muscle cells [6]; 5 berberine hydrochloride in 20 mM glucose medium) was “more than 2 times”.
With `COc1ccc2cc3[n+](cc2c1OC)CCc1cc2c(cc1-3)OCO2` [berberine, Berberine] the “glucose absorption induced by berberine after treatment with AMPK and p38 MAPK specific inhibitors” value (L6 muscle cells [6]; Compound C and SB202190) was “obviously lowered”, the “glucose absorption induced by berberine after treatment with wortmannin” value (L6 muscle cells [6]; wortmannin, specific inhibitor of insulin signaling pathway) was “not affected” and the “effect on insulin signaling pathway” value [7] was “little effect”. The “activity of AMPK” value (AMPK) was “significantly reinforced”, the “activity of p38 MAPK kinase” value (p38 MAPK kinase) was “significantly reinforced” and the “AMP:ATP ratio in cells” value (AMP:ATP ratio in cells) was “increased significantly”. The “increase of glucose consumption in HepG2 cells” value (HepG2 cells) was 32-60%, the “stimulation of βTC3 cells to secrete insulin” value (βTC3 cells) was “did not stimulate” and the “fasting blood glucose levels of all patients” value (type 2 diabetic patients; 20 cases not improved by D860, glibenclamide etc., 3 months, Zhang 1999) was “levels of all patients were lowered to normal levels 3 months”. For the same molecule, the side effects (type 2 diabetic patients; 20 cases, Zhang 1999) was “dependent on dose, and no side effects such as hypoglycemia”, the total efficiency (type 2 diabetic patients; 57 cases, berberine added after secondary failure of sulfonylurea alone or with metformin, 1 month, Wang 2002) was “efficiency was 81%” and the “adverse effect during the treatment” value (type 2 diabetic patients; 60 cases, 1-3 months, Ni 1988) was “hemogram during the treatment and no obvious adverse effect”. For the same molecule, the “average decrease of fasting blood glucose” value (type 2 diabetic patients; 60 cases, 1-3 months, Ni 1988) was “that the fasting blood glucose decreased averagely by 5.1 mmol/L”, the “toxic and/or adverse effects observed” value (type 2 diabetic patients; 60 cases, Hu 1995) was “patients with overweight recovered their normal weights. No” and the “blood serum insulin levels after the treatment” value (type 2 diabetic patients; 68 cases, Shi 2000) was “The blood serum insulin levels of the patients increased”. The total efficiency (type 2 diabetic patients; 68 cases, Shi 2000) was “significantly, and the total efficiency was 86.8%. The action”, the “time to disappearance of polyuria, polydipsia and polyphagia for all patients” value (type 2 diabetic patients; 75 cases, Yu 1994) was “within two weeks after administration of berberine accompanying” and the “blood glucose levels, observed clinically” value (type 2 diabetic patients; Juan WANG 2004) was “decreased”. The “blood serum insulin levels, observed clinically” value (type 2 diabetic patients; Juan WANG 2004) was “increased”, the “curative effect (blood glucose, blood serum insulin) compared with Diamicron group” value (type 2 diabetic patients; non-insulin dependent diabetic patients, 30 persons per group, 4 weeks, Yu, Yan 1995) was “showed that the two groups had similar curative effects and no” and the “patients observed with adverse effects or hypoglycemia” value (type 2 diabetic patients; observed for 4 years, regardless of dose, Yu 1994) was “treated with berberine and observed for 4 years, and none of them”. For the same molecule, the “effect on lowering blood glucose” value ([8]; dose of 40 mg/kg) was “atherosclerosis. It had a significant effect on lowering blood”, the “lowering blood glucose levels” value ([8]; normal mice and alloxan-induced diabetic mice) was “biguanides. It can lower blood glucose levels of both normal mice” and the “effect on reversing diabetic renal failure” value (diabetic mice) was “has a significant effect on reversing diabetic renal failure and”. The “expressions of insulin receptor genes and peroxisome proliferator activated receptor genes” value [9] was “Berberine can interact with insulin receptors and increase”.
In the case of `CN(C)C(=N)N=C(N)N` [metformin hydrochloride], the “increase of transport rate of 3-methyl glucose in L6 muscle cells” value (L6 muscle cells [10]) is listed as “about 0.5 times”.
